Laboratory results as given in patent EP2057188B1 (priority 2006, dated 2008).
Like-named read-outs stand apart in the source and are kept apart here. Ends that are not written are not given here.

Experiments:
[1] = IVGTT duration of action assay, single SC injection; type: in vivo, rat; details: compared with 0601GIP3794 (794); @ -120 min
Method: In the typical IVGTT assays the test sample was administered by IV infusion. The IV infusion of sample was initiated at t = -30min and continued through t = 90. IV glucose was given at t = 0. To determine a duration of action using the IVGTT assay, the sample was injected SC as a single injection at one time point indicated (e.g., t = -240, -120, -60 or -30) prior to administration of glucose. IV glucose was given at t = 0.

[2] = type: in vivo, NIH/Swiss mice; details: 80 nmol/Kg; AUC240
Method: Gavage (1.5g/kg) was given at t=0. Sample was taken at t=30 min.

[3] = molecular target: cardiomyocyte Gs- and Gi-coupled receptors; assay: cAMP assay in neonatal cardiomyocytes; type: cell-based, rat
Method: Activation of cardiomyocyte Gs- and Gi-coupled receptors was determined as a measure of cAMP production.
Neonatal cardiomyocytes were isolated using a commercially available system. […] Sprague Dawley neonatal rats (1-2 days old) were decapitated and the beating heart dissected out into digestion buffer (Cellutron D1 buffer) to dissociate cells. […] The resuspended cells incubated in buffer (Cellutron D3 buffer) for sufficient time to allow optimal dispersion and minimize the need for pipetting to break up clumps. Cells released from the first 2 digestions were discarded since a significant portion of these is red blood cells. Resuspended cells were filtered and allowed to pre-plate for 1 hour on plastic in an incubator in NS media (Cellutron, NJ) in order to remove fibroblasts. After 1 hour of pre-plating, floating cells are removed and the flask rinsed with NS media. The floating cells and the cells in the rinse media were combined and counted. Residual red blood cells, which are smaller that the cardiac myocytes, were not counted.
At Day 1, the NS media was replaced with fresh NS media.
Dose response was determined.
For Gs assays the positive control was 10uM forskolin and negative control was buffer. For Gi assays the positive control was buffer and the negative control was 10uM forskolin.

[4] = inhibition of gastric emptying, subcutaneous, cited from earlier work

## CC[C@H](C)[C@H](NC(=O)[C@H](CO)NC(=O)[C@H](Cc1ccc(O)cc1)NC(=O)[C@H](CC(=O)O)NC(=O)[C@H](CO)NC(=O)[C@@H](NC(=O)[C@H](Cc1ccccc1)NC(=O)[C@@H](NC(=O)CNC(=O)[C@H](CCC(=O)O)NC(=O)[C@@H](C)NC(=O)[C@@H](N)Cc1ccc(O)cc1)[C@@H](C)O)[C@@H](C)CC)C(=O)N[C@@H](C)C(=O)N[C@@H](CCSC)C(=O)N[C@@H](CC(=O)O)C(=O)N[C@@H](CCCCN)C(=O)N[C@H](C(=O)N[C@@H](Cc1c[nH]cn1)C(=O)N[C@@H](CCC(N)=O)C(=O)N[C@@H](CCC(N)=O)C(=O)N[C@@H](CC(=O)O)C(=O)N[C@@H](Cc1ccccc1)C(=O)N[C@H](C(=O)N[C@@H](CC(N)=O)C(=O)N[C@@H](Cc1c[nH]c2ccccc12)C(=O)N[C@@H](CC(C)C)C(=O)N[C@@H](CC(C)C)C(=O)N[C@@H](C)C(=O)N[C@@H](CCC(N)=O)C(=O)N[C@@H](CCCCN)C(=O)N1CCC[C@H]1C(=O)N[C@@H](C)C(=O)N[C@@H](CCCCN)C(=O)N[C@H](C(=O)N[C@@H](CCCNC(=N)N)C(=O)N[C@@H](Cc1ccc(O)cc1)C(=O)N[C@@H](CO)C(N)=O)[C@@H](C)CC)C(C)C)[C@@H](C)CC [0601 GIP48 15]
[1]
  Duration In The Rat IVGTT Assay: < 794@ -120 min
[2]
  Basal Glucose Lowering at 80 nmol/Kg: -14%, AUC240

## CC[C@H](C)[C@H](NC(=O)[C@H](CCCCN)NC(=O)[C@H](CC(=O)O)NC(=O)[C@H](CC(C)C)NC(=O)[C@H](C)NC(=O)[C@@H](NC(=O)[C@H](CO)NC(=O)[C@H](Cc1ccc(O)cc1)NC(=O)[C@H](CC(=O)O)NC(=O)[C@H](CO)NC(=O)[C@@H](NC(=O)[C@H](Cc1ccccc1)NC(=O)[C@@H](NC(=O)CNC(=O)[C@H](CCC(=O)O)NC(=O)[C@@H](C)NC(=O)[C@H](Cc1ccc(O)cc1)NC(=O)[C@@H](N)CC(C)C)[C@@H](C)O)[C@@H](C)CC)[C@@H](C)CC)C(=O)N[C@@H](C)C(=O)N[C@@H](CCC(N)=O)C(=O)N[C@@H](CCC(N)=O)C(=O)N[C@@H](CCC(=O)O)C(=O)N[C@@H](Cc1ccccc1)C(=O)N[C@H](C(=O)N[C@@H](CC(N)=O)C(=O)N[C@@H](Cc1c[nH]c2ccccc12)C(=O)N[C@@H](CC(C)C)C(=O)N[C@@H](CC(C)C)C(=O)N[C@@H](C)C(=O)N[C@@H](CCC(N)=O)C(=O)N[C@@H](CCCCN)C(=O)N1CCC[C@H]1C(=O)N[C@@H](CCCCN)C(=O)N[C@@H](CCCCN)C(=O)N[C@H](C(=O)N[C@@H](CCCNC(=N)N)C(=O)N[C@@H](Cc1ccc(O)cc1)C(=O)N[C@@H](CO)C(N)=O)[C@@H](C)CC)C(C)C [0601 GIP48 02]
[1]
  Duration In The Rat IVGTT Assay: < 794 @ -120 min
[2]
  Basal Glucose Lowering at 80 nmol/Kg: -15%, AUC240

## CC[C@H](C)[C@H](NC(=O)[C@H](C)NC(=O)[C@H](CCCCN)NC(=O)[C@@H]1CCCN1C(=O)[C@H](CCCCN)NC(=O)[C@H](CCC(N)=O)NC(=O)[C@H](C)NC(=O)[C@H](CC(C)C)NC(=O)[C@H](CC(C)C)NC(=O)[C@H](Cc1c[nH]c2ccccc12)NC(=O)[C@H](CC(N)=O)NC(=O)[C@@H](NC(=O)[C@H](Cc1ccccc1)NC(=O)[C@H](CC(=O)O)NC(=O)[C@H](CCC(N)=O)NC(=O)[C@H](CCC(N)=O)NC(=O)[C@H](Cc1c[nH]cn1)NC(=O)[C@@H](NC(=O)[C@H](CCCCN)NC(=O)[C@H](CC(=O)O)NC(=O)[C@H](CCSC)NC(=O)[C@H](C)NC(=O)[C@@H](NC(=O)[C@H](CO)NC(=O)[C@H](Cc1ccc(O)cc1)NC(=O)[C@H](CC(=O)O)NC(=O)[C@H](CO)NC(=O)[C@@H](NC(=O)[C@H](Cc1ccccc1)NC(=O)[C@@H](NC(=O)CNC(=O)[C@H](CCC(=O)O)NC(=O)[C@@H](C)NC(=O)[C@@H](N)Cc1ccc(O)cc1)[C@@H](C)O)[C@@H](C)CC)[C@@H](C)CC)[C@@H](C)CC)C(C)C)C(=O)N[C@@H](CCCNC(=N)N)C(=O)N[C@@H](Cc1ccc(O)cc1)C(=O)N[C@@H](CO)C(N)=O [0601 GIP48 16]
[1]
  Duration In The Rat IVGTT Assay: <794@-120 min
[2]
  Basal Glucose Lowering at 80 nmol/Kg: -9%, AUC240

## urocortin: known cardiac myocyte Gs-coupled receptor activator used as a positive control (DNPSLSIDLTFHLLRTLLELARTQSQRERAEQNRIIFDSV; ends and bridges not checked; UniProt P55089 83-122, looked up)
[3]; cardiomyocyte Gs-coupled receptor activation, three independent experiments
  EC(50): 0.7 nM

## CC[C@H](C)[C@H](NC(=O)[C@H](CO)NC(=O)[C@H](Cc1ccc(O)cc1)NC(=O)[C@H](CC(=O)O)NC(=O)[C@H](CO)NC(=O)[C@@H](NC(=O)[C@H](Cc1ccccc1)NC(=O)[C@@H](NC(=O)CNC(=O)[C@H](CCC(=O)O)NC(=O)[C@@H](C)NC(=O)[C@@H](N)Cc1ccc(O)cc1)[C@@H](C)O)[C@@H](C)CC)C(=O)N[C@@H](C)C(=O)N[C@@H](CCSC)C(=O)N[C@@H](CC(=O)O)C(=O)N[C@@H](CCCCN)C(=O)N[C@H](C(=O)N[C@@H](Cc1c[nH]cn1)C(=O)N[C@@H](CCC(N)=O)C(=O)N[C@@H](CCC(N)=O)C(=O)N[C@@H](CC(=O)O)C(=O)N[C@@H](Cc1ccccc1)C(=O)N[C@H](C(=O)N[C@@H](CC(N)=O)C(=O)N[C@@H](Cc1c[nH]c2ccccc12)C(=O)N[C@@H](CC(C)C)C(=O)N[C@@H](CC(C)C)C(=O)N[C@@H](C)C(=O)N[C@@H](CCC(N)=O)C(=O)N[C@@H](CCCCN)C(=O)N1CCC[C@H]1C(=O)N[C@@H](CCC(N)=O)C(=O)N[C@@H](CCCCN)C(=O)N[C@H](C(=O)N[C@@H](CCCNC(=N)N)C(=O)N[C@@H](Cc1ccc(O)cc1)C(=O)N[C@@H](CO)C(N)=O)[C@@H](C)CC)C(C)C)[C@@H](C)CC [0601 GIP48 53]
[1]
  Duration In The Rat IVGTT Assay: < 794@ -120 min
[2]
  Basal Glucose Lowering at 80 nmol/Kg: -20%, AUC240

## CC[C@H](C)[C@H](NC(=O)[C@H](CO)NC(=O)[C@H](Cc1ccc(O)cc1)NC(=O)[C@H](CC(=O)O)NC(=O)[C@H](CO)NC(=O)[C@@H](NC(=O)[C@H](Cc1ccccc1)NC(=O)[C@@H](NC(=O)CNC(=O)[C@H](CCC(=O)O)NC(=O)[C@@H](C)NC(=O)[C@@H](N)Cc1ccc(O)cc1)[C@@H](C)O)[C@@H](C)CC)C(=O)N[C@@H](C)C(=O)N[C@@H](CCSC)C(=O)N[C@@H](CC(=O)O)C(=O)N[C@@H](CCCCN)C(=O)N[C@H](C(=O)N[C@@H](Cc1c[nH]cn1)C(=O)N[C@@H](CCC(N)=O)C(=O)N[C@@H](CCC(N)=O)C(=O)N[C@@H](CC(=O)O)C(=O)N[C@@H](Cc1ccccc1)C(=O)N[C@H](C(=O)N[C@@H](CC(N)=O)C(=O)N[C@@H](Cc1c[nH]c2ccccc12)C(=O)N[C@@H](CC(C)C)C(=O)N[C@@H](CC(C)C)C(=O)N[C@@H](C)C(=O)N[C@@H](CCC(N)=O)C(=O)N[C@@H](CCCCN)C(=O)N1CCC[C@H]1C(=O)N[C@@H](CCCCN)C(=O)N[C@@H](CCCCN)C(=O)N[C@@H](C)C(=O)N[C@@H](CCCNC(=N)N)C(=O)N[C@@H](Cc1ccc(O)cc1)C(=O)N[C@@H](CO)C(N)=O)C(C)C)[C@@H](C)CC [0601 GIP48 56]
[1]
  Duration In The Rat IVGTT Assay: <794@-120 min
[2]
  Basal Glucose Lowering at 80 nmol/Kg: -3%, AUC240

## CC[C@H](C)[C@H](NC(=O)[C@H](CO)NC(=O)[C@H](Cc1ccc(O)cc1)NC(=O)[C@H](CC(=O)O)NC(=O)[C@H](CO)NC(=O)[C@@H](NC(=O)[C@H](Cc1ccccc1)NC(=O)[C@@H](NC(=O)CNC(=O)[C@H](CCC(=O)O)NC(=O)[C@@H](C)NC(=O)[C@@H](N)Cc1ccc(O)cc1)[C@@H](C)O)[C@@H](C)CC)C(=O)N[C@@H](C)C(=O)N[C@@H](CCSC)C(=O)N[C@@H](CC(=O)O)C(=O)N[C@@H](CCCCN)C(=O)N[C@H](C(=O)N[C@@H](Cc1c[nH]cn1)C(=O)N[C@@H](CCC(N)=O)C(=O)N[C@@H](CCC(N)=O)C(=O)N[C@@H](CC(=O)O)C(=O)N[C@@H](Cc1ccccc1)C(=O)N[C@H](C(=O)N[C@@H](CC(N)=O)C(=O)N[C@@H](Cc1c[nH]c2ccccc12)C(=O)N[C@@H](CC(C)C)C(=O)N[C@@H](CC(C)C)C(=O)N[C@@H](C)C(=O)N[C@@H](CCC(N)=O)C(=O)N[C@@H](CCCCN)C(=O)N1CCC[C@H]1C(=O)N[C@@H](CCCCN)C(=O)N[C@@H](CCCCN)C(=O)N[C@@H](CC(C)C)C(=O)N[C@@H](CCCCN)C(=O)N1CCC[C@H]1C(=O)N[C@@H](CO)C(N)=O)C(C)C)[C@@H](C)CC [0601 GIP48 22]
[1]
  Duration In The Rat IVGTT Assay: <794@-120 min
[2]
  Basal Glucose Lowering at 80 nmol/Kg: -11%, AUC240

## CC[C@H](C)[C@H](NC(=O)[C@H](CO)NC(=O)[C@H](Cc1ccc(O)cc1)NC(=O)[C@H](CC(=O)O)NC(=O)[C@H](CO)NC(=O)[C@@H](NC(=O)[C@H](Cc1ccccc1)NC(=O)[C@@H](NC(=O)CNC(=O)[C@H](CCC(=O)O)NC(=O)[C@@H](C)NC(=O)[C@@H](N)Cc1ccc(O)cc1)[C@@H](C)O)[C@@H](C)CC)C(=O)N[C@@H](C)C(=O)N[C@@H](CCSC)C(=O)N[C@@H](CC(=O)O)C(=O)N[C@@H](CCCCN)C(=O)N[C@H](C(=O)N[C@@H](Cc1c[nH]cn1)C(=O)N[C@@H](CCC(N)=O)C(=O)N[C@@H](CCC(N)=O)C(=O)N[C@@H](CC(=O)O)C(=O)N[C@@H](Cc1ccccc1)C(=O)N[C@H](C(=O)N[C@@H](CC(N)=O)C(=O)N[C@@H](Cc1c[nH]c2ccccc12)C(=O)N[C@@H](CC(C)C)C(=O)N[C@@H](CC(C)C)C(=O)N[C@@H](C)C(=O)N[C@@H](CCC(N)=O)C(=O)N[C@@H](CCCCN)C(=O)N1CCC[C@H]1C(=O)N[C@@H](CCCCN)C(=O)N[C@@H](CO)C(=O)N[C@@H](C)C(=O)N[C@@H](CCCNC(=N)N)C(=O)N1CCC[C@H]1C(=O)N[C@@H](CO)C(N)=O)C(C)C)[C@@H](C)CC [0601 GIP48 21]
[1]
  Duration In The Rat IVGTT Assay: <794@-120 min
[2]
  Basal Glucose Lowering at 80 nmol/Kg: -5%, AUC240

## HAEGTFTSDVSSYLEGQAAKEFIAWLVKGR-NH2 [GLP-1]
[4]; conscious rats ~200g
  EC(50): 1.82 µg
[4]; conscious rats
  EC(50): 2.76 nmol/kg
[3]; data not shown
  cAMP activity in cardiomyocytes: very low to no significant activity
